Measured values reported in PMC10666548, “Identification of the bacterial metabolite aerugine as potential trigger of human dopaminergic neurodegeneration” (Environment international, 2023).
Like-named read-outs stand apart in the source and are kept apart here.

Legend:
[1] = Cytotoxicity to mature (d6) LUHMES neurons, calcein-AM & H-33342 high content imaging; format: cell-based, human; conditions: human, mature LUHMES d6, 24 h exposure; read-out: EC50 (half-maximal cytotoxic potency), cell viability
Experimental: (§1) For toxicity assessment of mature LUHMES neurons, precursor cells were pre-differentiated for 2 days in cell culture flasks pre-coated as described above and differentiation medium. Then, 45′000 cells per well were seeded in differentiation medium into standard 96-well plates pre-coated as described above. They were incubated at 37 °C and 5% CO2 for 4 days before compound treatment. At this time, cells were >99% post-mitotic and had established an extensive neurite network ([Scholz et al., 2011]) The cell viability was assessed via the Calcein/Hoechst readout, the LDH assay and the resazurin reduction assay.
(§2) Neurite area (NA) and viability (V) were assessed as described previously ([Stiegler et al., 2011]). In brief, cells were stained with 1 μM calcein-AM and 1 μg/ml H-33342 for 30 min at 37 °C and 5% CO2. Image acquisition was performed using an Array-Scan VTI HCS Reader (Cellomics, PA, USA) equipped with a Hamamatsu ORCA-ER camera. 10 fields per well were imaged with 2 channels at 20x magnification (2×2 pixel binning). Excitation/emission wavelengths of 365 ± 50/535 ± 45 nm were used for Hoechst detection in channel 1 and 474 ± 40/535 ± 45 nm were used for calcein detection in channel 2.
(§3) Nuclei were identified in channel 1 depending on intensity, area, size and shape. Their outlines were expanded by 3.2 μm to define a virtual cell soma area (VCSA), which was bigger than the average cell soma to prevent false positive NAs. All calcein-positive pixels were defined as viable cellular structures (VCSs). The NA was automatically calculated by excluding the VCSAs from the VCSs. Furthermore all nuclei co-localizing with VCSs were defined as alive.

[2] = tested on: human dopaminergic neurons (LUHMES cells); test: as above; format: cell-based; conditions: for EC50: mature LUHMES d6, 24 h exposure, read-out: EC50 (half-maximal cytotoxic potency), cell viability
Experimental: as §1, §2, §3

[3] = Cytotoxicity to proliferating (d0) LUHMES cells, calcein-AM & H-33342 imaging; format: cell-based; conditions: human, proliferating LUHMES d0, 24 h exposure, read-out: EC50 (half-maximal cytotoxic potency), cell viability
Experimental: LUHMES cells were cultivated as described previously ([Krug et al., 2013]; [Schildknecht et al., 2013]; [Scholz et al., 2011]). In brief, cells were grown in standard cell culture flasks pre-coated with 50 μg/ml PLO and 1 μg/ml fibronectin in water for at least 3 h at 37 °C. The maintenance culture was kept in proliferation medium consisting of advanced DMEM/F12 with 2 mM L-glutamine, 1x N2-supplement, and 40 ng/ml FGF-2. The cells were incubated at 37 °C with 5% CO2 and passaged trice a week when reaching 75–90% confluence. They were used up to passage 18. […]
Neurite area (NA) and viability (V) were assessed as described previously ([Stiegler et al., 2011]). […] Image acquisition was performed using an Array-Scan VTI HCS Reader (Cellomics, PA, USA) equipped with a Hamamatsu ORCA-ER camera. […]
Nuclei were identified in channel 1 depending on intensity, area, size and shape. […] The NA was automatically calculated by excluding the VCSAs from the VCSs. […]
Fig. 3. […] The cell viability was assessed 24 h later by calcein-AM & H-33342 staining and high content imaging. […] The overall cell viability was assessed by measuring resazurin reduction in technical triplicates. […] The cell viability was assessed 24 h later by calcein-AM & H-33342 staining and high content imaging. […]

LUHMES neurons = test: Time course of cell death in d6 LUHMES (phase contrast, TMRE, H-33342, propidium iodide); format: cell-based, human; conditions: 10 μM
Experimental: Cells were stained either with 50 nM tetramethylrhodamine ethyl ester (TMRE) or 1.5 μM propidium iodide (PI) for at least 30 min at 37 °C and 5% CO2 ([Brüll et al., 2020]; [Krug et al., 2014]). Fluorescent imaging was performed (AxioObserver, Zeiss, Germany) with excitation/emission wavelengths of 575 ± 25/640 ± 35 nm.
To obtain additional information on the death process triggered by aerugine, we also examined earlier time points after exposure to a fixed concentration of 10 μM. Semi-quantitative information was obtained from phase contrast images, by staining of energized mitochondria with the potential-sensitive dye tetramethylrhodamine ethyl ester (TMRE) and by visualization of the chromatin structure with the […] dye H-33342. […] While the neurite structure was well-preserved, some of the cell bodies flattened in a way that the nucleus became visible in phase contrast. The normally round/dome-like cells took a flattened “fried egg” structure. In parallel, the DNA condensed and fragmented into small, round and highly-fluorescent spheres, a typical hallmark of apoptosis. Cells with apoptotic nuclei had lost their TMRE stain. At 8 h, more cell bodies looked flattened (“unhealthy”) and the neurites were thinning. […] This sequence of events is typical of neuronal apoptosis, e.g. under mild excitotoxic conditions, or after exposure to proteasome inhibitors or cytoskeletal poisons ([Gutbier et al., 2018b]; [Leist et al., 1997]; [Volbracht et al., 2001]; [Volbracht et al., 1999]). The overall kinetics of cell death was rather fast, compared to many other toxicants. […] To obtain a more quantitative confirmation of the rapid process, cells were stained with calcein-acetoxymethyl ester and propidium iodide (PI) and observed over time. The staining of nuclei (indication of plasma membrane permeability) by PI was quantified by an imaging algorithm. By 6 h, dead cells increased by 17 ± 6%, by 8 h by 25 ± 5%, and by 10 h, > 95% of the cell nuclei were positive. This confirms the fast cell death process triggered by aerugine (10 μM) in neurons.

5HT2B receptor = tested on: 5HT2B receptor; design: method as in Lin et al., 2017; conditions: ref Lin et al., 2017; cited from earlier work

Q: For `OCC1CSC(c2ccccc2O)=N1` (stereo not drawn) [aerugine, 2-[4-(hydroxymethyl)-4,5-dihydro-1,3-thiazol-2-yl]phenol], which EC50 at 24 h [1] is on record?
A: 4.1 ± 0.8 µM

Q: And the “cytotoxicity to DAergic neurons (viability)” value ([2]; d6 LUHMES, 24 h (24 h and 48 h for purified compounds))?
A: cytotoxic to DAergic neurons in a time- and concentration-dependent manner

Q: And the “effect on neurite area” value ([2]; d6 LUHMES, 24 h assay setup)?
A: affected neurites to the same extent and at similar concentrations as cell bodies

Q: And the cytotoxic potency range ([2]; d6 LUHMES, purified compound)?
A: low μM range

Q: What about the EC50 ([2]; listed as Aerugine) of the same compound?
A: 3 to 4 µM

Q: What about the EC50 [2] of the same compound?
A: 3.1 ± 0.7 µM

Q: What about the “increase of aerugine sensitivity by neuronal maturity state” value ([2]; mature vs proliferating LUHMES) of the same compound?
A: approximately three-fold

Q: What about the EC50 at 24 h [3] of the same compound?
A: 13 ± 0.2 µM

Q: And the “morphology (phase contrast, TMRE, H-33342)” value (LUHMES neurons; 6 h exposure)?
A: clear morphological changes became obvious

Q: What about the “mitochondrial membrane potential in intact neurites (TMRE)” value (LUHMES neurons; 8 h) of the same compound?
A: the mitochondrial membrane potential was lost

Q: What about the “morphology (neurites, nuclei)” value (LUHMES neurons; 10 h) of the same compound?
A: the majority of neurites was lost

Q: And the “increase of dead cells (PI-stained nuclei)” value (LUHMES neurons; by 6 h)?
A: 17 ± 6%

Q: And the “increase of dead cells (PI-stained nuclei)” value (LUHMES neurons; by 8 h)?
A: 25 ± 5%

Q: What about the PI-positive cell nuclei (LUHMES neurons; by 10 h) of the same compound?
A: > 95%

Q: And the “displacement of radioactive lysergic acid diethylamide” value (5HT2B receptor)?
A: displaced radioactive lysergic acid diethylamide at low μM concentrations
